In patent US7662825B2, “N-pyrazinyl-phenylsulphonamides and their use in the treatment of chemokine mediated diseases” (AstraZeneca AB, priority 2002, dated 2010):

With `COC(=O)c1cnc(NS(=O)(=O)c2cccc(Cl)c2Cl)c(OC)n1` [Example 113, 5-(2,3-Dichlorobenzenesuphonylamino)-6-methoxypyrazine-2-carboxylic acid, methyl ester] the melting point was 120 to 121 °C.
With `O=C(O)c1cccc(COc2nc(Cl)cnc2NS(=O)(=O)c2cccc(Cl)c2Cl)c1` [Example 105, 3-[6-Chloro-3-(2,3-dichlorobenzenesulphonylamino)-2-pyrazinyloxymethyl]benzoic acid] the melting point was 218 to 224 °C (dec.).
Work on `COc1nc(C)cnc1NS(=O)(=O)c1cccc(Cl)c1` [Example 45, 3-Chloro-N-(3-methoxy-5-methyl-2-pyrazinyl)benezenesulphonamide] yielded a melting point of 123 to 125 °C.
Work on `COc1nc(N2CCOCC2)cnc1NS(=O)(=O)c1cccc(Cl)c1Cl` [Example 55, 2,3-Dichloro-N-[3-methoxy-5-(4-morpholinyl)-2-pyrazinyl]benzenesulphonamide] yielded a melting point of 167 to 168 °C.
`COc1nc(Cl)c(Cl)nc1NS(=O)(=O)c1cccc(Cl)c1C` [Example 58, 3-Chloro-N-(5,6-dichloro-3-methoxy-2-pyrazinyl)-2-methylbenzenesulphonamide] gave a melting point of 177 to 178 °C.
Work on `COc1nc(C)cnc1NS(=O)(=O)c1ccc(Cl)cc1` [Example 46, 4-Chloro-N-(3-methoxy-5-methyl-2-pyrazinyl)benezenesulphonamide] yielded a melting point of 155 to 156 °C.
Work on `COC(=O)c1nc(OC)c(NS(=O)(=O)c2cccc(Cl)c2Cl)nc1Cl` [Example 126, 3-Chloro-5-{[(2,3-dichlorophenyl)sulphonyl]amino}-6-methoxypyrazine-2-carboxylic acid, methyl ester] yielded a melting point of 200 to 201 °C.
With `Cn1cc(COc2nc(Br)cnc2NS(=O)(=O)c2cccc(Cl)c2Cl)ccc1=O` [Example 32, N-[5-Bromo-3-(1-methyl-6-oxo-1,6-dihydro-3-pyridinylmethoxy)-2-pyrazinyl]-2,3-dichlorobenzenesulphonamide] the melting point was 169 to 170 °C.
Compound `CNC(=O)CSc1cnc(NS(=O)(=O)c2cccc(Cl)c2Cl)c(OC)n1` [Example 168, 2-[5-(2,3-Dichlorobenzenesulphonylamino)-6methoxy-2-pyrazinylsulphanyl]-N-methylacetamide] has a melting point of 150 to 152 °C.
`COC(=O)c1cccc(COc2nc(Cl)cnc2NS(=O)(=O)c2cccc(Cl)c2Cl)c1` [Example 104, 3-[6-Chloro-3-(2,3-dichlorobenzenesulphonylamino)-2-pyrazinyloxymethyl]benzoic acid methyl ester] showed a melting point of 175 to 176 °C.
`COc1nc(Cl)cnc1NS(=O)(=O)c1cccc(Cl)c1F` [Example 122, 3-Chloro-N-(5-chloro-3-methoxy-2-pyrazinyl)-2-fluorobenzenesulphonamide] gave a melting point of 156 to 157 °C.
With `COc1nc(Cl)cnc1NS(=O)(=O)c1ccccc1Cl` [Example 51, 2-Chloro-N-(5-chloro-3-methoxy-2-pyrazinyl)benzenesulphonamide] the melting point was 190 to 192 °C.
For `COc1nc(OCc2cc(C)on2)cnc1NS(=O)(=O)c1cccc(Cl)c1Cl` [Example 174], the melting point was 142 to 143 °C.
`COc1nc(Br)c(C)nc1NS(=O)(=O)c1cccc(Cl)c1Cl` [Example 118, 2,3-Dichloro-N-[5-bromo-3-methoxy-6-methyl-2-pyrazinyl)benzenesulphonamide] gave a melting point of 146 to 148 °C.
For `CC(Oc1nc(Cl)cnc1NS(=O)(=O)c1cccc(Cl)c1Cl)C1CC1` (stereo not shown) [Example 208], the melting point was 161 to 162 °C.
Compound `COc1nc(C)cnc1NS(=O)(=O)c1ccccc1F` [Example 13, N-(3-Methoxy-5-methyl-2-pyrazinyl)-2-fluorobenzenesulphonamide] has a melting point of 150 to 152 °C.
Compound `CSCCOc1nc(Cl)cnc1NS(=O)(=O)c1cccc(Cl)c1Cl` [Example 90, 2,3-Dichloro-N-[5-chloro-3-(2-methylsulphanylethoxy)-2-pyrazinyl]benzenesulphonamide] has a melting point of 140 to 141 °C.
`COc1nc(CO)cnc1NS(=O)(=O)c1cccc(Cl)c1Cl` [Example 138] showed a melting point of 160 to 161 °C.
For `COC(=O)c1cnc(OC)c(NS(=O)(=O)c2cccc(Cl)c2Cl)n1` [Example 201, 6-(2,3-Dichlorophenylsulphonylamino)-5-methoxy-2-pyrazinecarboxylic acid, methyl ester], the melting point was 90 to 92 °C.
Compound `COc1nc(SCCN)c(Cl)nc1NS(=O)(=O)c1cccc(Cl)c1Cl` [Example 116, N-{5-[(2-Aminoethyl)thio]-6-chloro-3-methoxy-2-pyrazinyl}-2,3-dichlorobenzenesulfonamide] has a melting point of 185 to 190 °C.
`COc1ncc(Cl)nc1NS(=O)(=O)c1cccc(Cl)c1` [Example 39, 3-Chloro-N-(6-chloro-3-methoxy-2-pyrazinyl)benezenesulphonamide] showed a melting point of 126 to 127 °C.
In the case of `CNCc1ccc(COc2nccnc2NS(=O)(=O)c2cccc(Cl)c2Cl)o1` [Example 183, 2,3-Dichloro-N-[3-(5-methylaminomethyl-2-furanylmethoxy)-2-pyrazinyl]benzenesulphonamide], the melting point is reported as 198 to 199 °C.
For `Cc1cnc(NS(=O)(=O)c2cccc(Cl)c2Cl)c(OCc2ccncc2)n1` [Example 25, 2,3-Dichloro-N-[5-methyl-3-(4-pyridinylmethoxy)-2-pyrazinyl]benzenesulphonamide], the melting point was 183 to 184 °C.
For `C#CCOc1nc(Cl)cnc1NS(=O)(=O)c1cccc(Cl)c1Cl` [Example 188, 2,3-Dichloro-N-[5-chloro-3-(2-propynyloxy)-2-pyrazinyl]benzenesulphonamide], the melting point was 138 to 139 °C.
`COCCNc1nc(OC)c(NS(=O)(=O)c2cccc(Cl)c2Cl)nc1Cl` [Example 75, 2,3-Dichloro-N-{6-chloro-3-methoxy-5-([2-methoxyethyl)amino]-2-pyrazinyl}benzenesulphonamide] gave a melting point of 177 to 178 °C.
`COc1nc(OCc2ccc(CN(C)C)o2)cnc1NS(=O)(=O)c1cccc(Cl)c1Cl` [Example 175, 2,3-Dichloro-N-[5-(5-dimethylaminomethyl-2-furanylmethoxy)-3-methoxy-2-pyrazinyl]benzenesulphonamide] showed a melting point of 114 to 115 °C.
Work on `Cc1cnc(NS(=O)(=O)c2cccc(Cl)c2Cl)c(OCc2ccc[n+]([O-])c2)n1` [Example 86] yielded a melting point of 223 to 228 °C.
Work on `Cc1cnc(NS(=O)(=O)c2cccc(Cl)c2Cl)c(OCc2cccnn2)n1` [Example 27, 2,3-Dichloro-N-[5-methyl-3-(3-pyridazinylmethoxy)-2-pyrazinyl]benzenesulphonamide] yielded a melting point of 119 to 124 °C.
`Cc1cnc(NS(=O)(=O)c2cccc(Cl)c2Cl)c(OCc2cc(C)on2)n1` [Example 21, 2,3-Dichloro-N-[5-methyl-3-(5-methyl-3-isoxazolylmethoxy)-2-pyrazinyl]benzenesulphonamide] gave a melting point of 155 to 156 °C.
In the case of `COc1nc(SCc2ncon2)cnc1NS(=O)(=O)c1cccc(Cl)c1Cl` [Example 172, 2,3-Dichloro-N-[3-methoxy-5-([1,2,4]-3-oxadiazolylmethylsulphanyl)-2-pyrazinyl]benzenesulphonamide], the melting point is reported as 154 to 156 °C.
Work on `COc1nc(C(C)(C)O)cnc1NS(=O)(=O)c1cccc(Cl)c1Cl` [Example 114, 2,3-Dichloro-N-[5-(1-hydroxy-1-methylethyl)-3-methoxy-2-pyrazinyl]benzenesulphonamide] yielded a melting point of 192 to 193 °C.
